Values of other authors, collected in US12280067B2 (Phenolics, LLC, priority 2019, dated 2025).

Legend:
Caco-2 monolayers = conditions: Dash et al. 2001
[1] = oral, 6-week period, versus creatine monohydrate
[2] = rats, injected intravenously

| SMILES | Permeability via Caco-2 monolayers (Caco-2 monolayers) | Effectiveness in achieving lean body mass, desired body weight and improved strength [1] | ATP levels in red blood cells [2] | Bio-transformation and elimination in the body [2] |
| --- | --- | --- | --- | --- |
| CN(CC(=O)O)C(=N)N [creatine] | quite low |  |  |  |
| CN(CC(=O)O)C(=N)NP(=O)(O)O [phosphocreatine, N-Methyl-N-(phosphono-carbamimidoyl)glycine] |  | as effective as creatine monohydrate | significant elevation | very rapidly |
